Data taken from publication PMC6704710, “Preclinical evaluation of 3D185, a novel potent inhibitor of FGFR1/2/3 and CSF-1R, in FGFR-dependent and macrophage-dominant cancer models” (Journal of Experimental & Clinical Cancer Research : CR, 2019).

Legend:
[1] = target: T1, TAO1(h) (Homo sapiens, UniProt Q7L7X3); assay: Eurofins kinase panel; type: biochemical; details: read-out: Inhibition rate (%)
T1 construct: purchased Eurofins (KinaseProfiler)
T1 sequence (Q7L7X3 1-1001): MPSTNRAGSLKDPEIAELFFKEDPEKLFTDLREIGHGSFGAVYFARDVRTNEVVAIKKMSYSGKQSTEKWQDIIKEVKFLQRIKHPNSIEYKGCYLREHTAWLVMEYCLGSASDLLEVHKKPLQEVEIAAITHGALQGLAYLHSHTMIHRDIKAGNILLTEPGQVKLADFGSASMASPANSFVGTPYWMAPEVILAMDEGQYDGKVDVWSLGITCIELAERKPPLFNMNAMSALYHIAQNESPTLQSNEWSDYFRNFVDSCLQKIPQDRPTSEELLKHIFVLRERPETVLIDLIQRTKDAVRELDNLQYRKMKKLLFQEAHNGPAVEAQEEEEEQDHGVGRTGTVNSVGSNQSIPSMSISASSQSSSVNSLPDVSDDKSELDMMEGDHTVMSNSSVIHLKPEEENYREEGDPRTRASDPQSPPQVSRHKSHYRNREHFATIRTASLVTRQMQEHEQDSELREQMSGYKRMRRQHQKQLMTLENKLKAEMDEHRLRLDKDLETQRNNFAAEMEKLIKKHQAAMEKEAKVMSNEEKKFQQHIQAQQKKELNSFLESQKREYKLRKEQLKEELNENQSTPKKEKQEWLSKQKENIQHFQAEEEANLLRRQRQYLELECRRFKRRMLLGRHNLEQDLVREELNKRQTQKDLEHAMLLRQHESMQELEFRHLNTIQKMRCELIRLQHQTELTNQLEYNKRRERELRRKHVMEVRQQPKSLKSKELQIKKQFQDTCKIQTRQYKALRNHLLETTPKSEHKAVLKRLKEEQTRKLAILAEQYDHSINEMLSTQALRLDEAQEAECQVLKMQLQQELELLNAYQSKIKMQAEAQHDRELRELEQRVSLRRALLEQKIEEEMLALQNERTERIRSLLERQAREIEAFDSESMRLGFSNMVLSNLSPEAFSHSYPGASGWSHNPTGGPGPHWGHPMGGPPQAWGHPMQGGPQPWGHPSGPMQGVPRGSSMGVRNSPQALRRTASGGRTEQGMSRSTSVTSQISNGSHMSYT

[2] = target: T2, JNK3(h) (Homo sapiens, UniProt P53779); assay: Eurofins kinase panel; type: biochemical; details: read-out: Inhibition rate (%)
T2 construct: purchased Eurofins (KinaseProfiler)

[3] = system: EBC-1; assay: Cell proliferation assay; type: cell-based; details: Homo sapiens, Fig. 2G
Protocol: (§1) The cancer cell lines indicated in Figure 3 were seeded in 96-well plates at a low density in growth medium. The next day, appropriate controls or the designated concentrations of the compounds were added to each well, and the cells were incubated for 72 h. HUVECs (passage 3) were seeded in 96-well plates in growth medium overnight and transferred to serum-free medium for 24 h. The following day, appropriate controls or the designated concentrations of the compounds were added to each well, and 100 ng/mL growth factor (bFGF or VEGF) was added to the indicated wells. The cells were incubated for 48 h. Finally, cell proliferation was determined using a sulforhodamine B (SRB) assay or a cell counting kit-8 (CCK-8) assay. […] IC50 values for proliferation curves were calculated using a 4-parameter logistic nonlinear regression model with SoftMax Pro Software (Molecular Devices, San Jose, USA).

[4] = system: MKN45; assay: Cell proliferation assay; type: cell-based; details: Homo sapiens, MKN-45; Fig. 2G
Protocol: as §1

[5] = system: NCI-H520; assay: Cell proliferation assay; type: cell-based; details: Homo sapiens, Fig. 2G
Protocol: as §1

[6] = system: HCC1954; assay: Cell proliferation assay; type: cell-based; details: Homo sapiens, Fig. 2G
Protocol: as §1

[7] = system: BGC-823; assay: Cell proliferation assay; type: cell-based; details: Homo sapiens, Fig. 2G
Protocol: as §1

[8] = system: MKN28; assay: Cell proliferation assay; type: cell-based; details: Homo sapiens, MKN-28; Fig. 2G
Protocol: as §1

[9] = system: NCI-H460; assay: Cell proliferation assay; type: cell-based; details: Homo sapiens, Fig. 2G
Protocol: as §1

[10] = system: HCC366; assay: Cell proliferation assay; type: cell-based; details: Homo sapiens, Fig. 2G
Protocol: as §1

[11] = system: NCI-H1299; assay: Cell proliferation assay; type: cell-based; details: Homo sapiens, Fig. 2G
Protocol: as §1

[12] = system: NCI-H2444; assay: Cell proliferation assay; type: cell-based; details: Homo sapiens, Fig. 2G
Protocol: as §1

[13] = system: MCF-7; assay: Cell proliferation assay; type: cell-based; details: Homo sapiens, MCF7; Fig. 2G
Protocol: as §1

[14] = system: T47D; assay: Cell proliferation assay; type: cell-based; details: Homo sapiens, Fig. 2G
Protocol: as §1

[15] = system: SK-BR-3; assay: Cell proliferation assay; type: cell-based; details: Homo sapiens, Fig. 2G
Protocol: as §1

[16] = system: A375; assay: Cell proliferation assay; type: cell-based; details: Homo sapiens, A-375; Fig. 2G
Protocol: as §1

[17] = system: MKN1; assay: Cell proliferation assay; type: cell-based; details: Homo sapiens, MKN-1; Fig. 2G
Protocol: as §1

[18] = system: NCI-H1975; assay: Cell proliferation assay; type: cell-based; details: Homo sapiens, Fig. 2G
Protocol: as §1

[19] = system: MDA-MB-453; assay: Cell proliferation assay; type: cell-based; details: Homo sapiens, Fig. 2G
Protocol: as §1

[20] = system: SGC-7901; assay: Cell proliferation assay; type: cell-based; details: Homo sapiens, Fig. 2G
Protocol: as §1

[21] = system: CAL51; assay: Cell proliferation assay; type: cell-based; details: Homo sapiens, CAL-51; Fig. 2G
Protocol: as §1

[22] = system: HCC78; assay: Cell proliferation assay; type: cell-based; details: Homo sapiens, Fig. 2G
Protocol: as §1

T2 sequence (P53779 whole entry): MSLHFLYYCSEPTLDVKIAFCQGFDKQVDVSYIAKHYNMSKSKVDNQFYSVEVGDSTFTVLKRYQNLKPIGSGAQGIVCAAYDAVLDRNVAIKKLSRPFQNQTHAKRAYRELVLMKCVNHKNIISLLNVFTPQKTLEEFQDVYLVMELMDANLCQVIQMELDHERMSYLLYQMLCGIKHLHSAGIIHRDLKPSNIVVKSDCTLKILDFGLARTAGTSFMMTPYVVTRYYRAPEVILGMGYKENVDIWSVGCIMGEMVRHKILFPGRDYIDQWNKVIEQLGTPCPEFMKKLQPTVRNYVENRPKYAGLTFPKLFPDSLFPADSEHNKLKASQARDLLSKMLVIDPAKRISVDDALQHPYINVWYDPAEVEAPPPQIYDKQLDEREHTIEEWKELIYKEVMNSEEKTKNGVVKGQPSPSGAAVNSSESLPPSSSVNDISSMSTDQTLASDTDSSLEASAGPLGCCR

Which inhibition at 0.01 µM ([1]; 10 nM) does the source give for COc1cc(OC)c(Cl)c(-c2ccc3c(NC(=O)c4ccc(N5CCNC(C)(C)C5)cc4)n[nH]c3n2)c1Cl [3D185] here?
The inhibition at 0.01 µM was -2%.

And the inhibition at 0.1 µM ([1]; 100 nM)?
Its inhibition at 0.1 µM is 6%.

What about the inhibition at 1 µM ([1]; 1000 nM) of the same molecule?
Its inhibition at 1 µM is 21%.

What about the inhibition at 0.01 µM ([2]; 10 nM) of the same molecule?
Its inhibition at 0.01 µM is -17%.

And the inhibition at 0.1 µM ([2]; 100 nM)?
The inhibition at 0.1 µM was -22%.

And the inhibition at 1 µM ([2]; 1000 nM)?
Its inhibition at 1 µM is -36%.

What about the IC50 [3] of the same molecule?
The IC50 was greater than 1000 nM.

And the IC50 [4]?
The IC50 was greater than 1000 nM.

What about the IC50 [5] of the same molecule?
Its IC50 is greater than 1000 nM.

And the IC50 [6]?
Its IC50 is greater than 1000 nM.

What about the IC50 [7] of the same molecule?
Its IC50 is greater than 1000 nM.

What about the IC50 [8] of the same molecule?
The IC50 was greater than 1000 nM.

And the IC50 [9]?
Its IC50 is greater than 1000 nM.

And the IC50 [10]?
The IC50 was greater than 1000 nM.

What about the IC50 [11] of the same molecule?
The IC50 was greater than 1000 nM.

And the IC50 [12]?
Its IC50 is greater than 1000 nM.

And the IC50 [13]?
The IC50 was greater than 1000 nM.

And the IC50 [14]?
Its IC50 is greater than 1000 nM.

And the IC50 [15]?
Its IC50 is greater than 1000 nM.

And the IC50 [16]?
The IC50 was greater than 1000 nM.

What about the IC50 [17] of the same molecule?
Its IC50 is greater than 1000 nM.

What about the IC50 [18] of the same molecule?
The IC50 was greater than 1000 nM.

What about the IC50 [19] of the same molecule?
Its IC50 is greater than 1000 nM.

What about the IC50 [20] of the same molecule?
Its IC50 is greater than 1000 nM.

What about the IC50 [21] of the same molecule?
The IC50 was greater than 1000 nM.

What about the IC50 [22] of the same molecule?
The IC50 was greater than 1000 nM.
